Data as given in US20190111107A1, “METHODS FOR MODULATING INTESTINAL MICROBIOTA” (DEFENSIN THERAPEUTICS APS, priority 2016, published 2019).
Entries after “also recorded” stand apart in the source; their conditions may differ. Positions of bridges follow the written chain, without caps; N, C: chain ends. No end group written: not given here.

What was measured:
[1] = test system: Dextran Sodium Sulphate (DSS) induced colitis; assay: Acute 10-day Dextran Sodium Sulphate (DSS) induced colitis model, hBD-2-albumin fusion C-terminal; type: in vivo, mice; settings: active control
Method: To determine and assess the anti-inflammatory effect of “hBD-2-albumin fusion C-terminal” in an acute 10-day Dextran Sodium Sulphate (DSS) induced colitis model in mice.
Treatment regimen: “hBD-2-albumin C-terminal” was administered intravenously via the tail vein or subcutaneously with the use of a sterile 25G needle in a dosing volume of 10 ml/kg body weight. The animals received 1 dose daily for 10 […] days. The active control Prednisolone (Pred) was given orally by gavage at a dose of 1 mg/kg in a dosing volume of 10 ml/kg body weight OD.

mice fed a high fat diet = assay: Prophylactic treatment with defensins in mice fed a high fat diet: weight, lean/fat mass, glucose homeostasis; type: in vivo, C57/BL/6J mice; settings: for weight gain compared with HFD reference group: 10 week study, defensin in HFD, 1,2mg hBD2 per kg mouse per day, HD5 equimolar; for visceral fat (eWAT) compared with HFD group / liver weight: at termination; for liver weight: vs HFD and LFD groups; for glucose-stimulated insulin secretion compared with HFD control mice: during the glucose challenge; for Glucose Tolerance test compared with HFD group: oral glucose tolerance test; for HOMA-IR index compared with HFD group: week 9
Method: Schematic outline of the experimental set up for investigating the effects of mammalian alfa and/or beta defensins on mice metabolism. At week −1, the C57/BL/6J mice were divided in groups and cages, so that there were 3 mice per cage and cages per group. Between week −1 and 0, the mice were clinically examined by magnetic resonance scan to estimate fat distribution. […] At week 4, in addition to analysis of the microbiota, the mice were scanned and blood glucose and insulin levels were measured. […] At week 7, insulin tolerance test (ITT) was conducted. At week 8, oral glucose tolerance test (OGTT) and glucose-stimulated insulin secretion (GSIS) were conducted. At week 9 (termination), several analyses were conducted, in particular the mice were weighed and scanned, and plasma composition and microbiota composition of colon, cecum and small intestine were assessed.
Mice: Mice were housed in trios, 4 cages per group. Feed intake was registered daily just before lights were turned off (6 pm). Individual mice were subjected to experimental procedures in altered order both group and cage wise. Mice were kept at room temperature under a 12-hour light/dark cycle at SPF standard conditions.
Diets: For dosing, the average weight was estimated to be 25 grams per mouse. They eat approximately 3 grams of feed per mouse per day.
Treatment regime (FIG. 1A): Mice were fed either a high fat diet (HFD) or a low fat (LF) control diet. The HFD contains 4 subgroups; 1 hBD2, 1 HD5, 1 hBD2/HD5 and 1 standard HFD without supplementation of defensins. Defensin concentration is 1,2mg hBD2 per kg mouse per day. HD5 is given in equimolar concentration to hBD2.

diet-induced obese mice = assay: Interventional treatment with defensins in diet-induced obese mice: weight, fat percentage, glucose homeostasis; type: in vivo, C57/BL/6J mice; settings: for fat percentage / change in fat percentage compared with HFD control: 4 weeks after dietary intervention; for Glucose Tolerance Test after start of intervention: OGTT repeated biweekly from week 13-0; for Insulin Tolerance Test: insulin sensitivity compared with HFD control group: week 9, p<0.05
Description: FIG. 1B. Schematic outline of the experimental set up for investigating the effects of mammalian alfa and/or beta defensins on mice metabolism. At week −1, the C57/BL/6J mice arrived. At week 0 feces was collected. During run-in between week 0 and week 12 the mice were fed a high fat diet. At week 12 the mice were clinically examined by magnetic resonance scan to estimate fat distribution, feces was collected and oral glucose tolerance test (OGTT) and glucose-stimulated insulin secretion (GSIS) performed. At week 13-0 the mice were divided in groups and cages with 4 mice percage and 3 cages per group. At week 0, 12 and 13-10, the microbiome of the faeces was analysed. At week 13-2, 13-4, 13-6, 13-8 and 13-10 the mice were scanned and blood glucose and insulin levels were measured. At week 13-9, insulin tolerance test (ITT) was conducted. At week 13-10 (termination), several analyses were conducted, in particular the mice were weighed and scanned, and plasma composition and microbiota composition of colon, cecum and small intestine were assessed. In addition, iWAT, eWAT and liver weight were measured.
Mice and diets. The experiment elucidates the effect of hBD-2 and HD5 in the treatment of metabolic syndrome (MetS) in diet-induced obese mice. A run-in period of 13 weeks where mice were fed a very HFD (60% energy from fat) preceded the intervention. Only mice meeting the criteria of a minimum of 12 gram weight gain (approximately 50% of initial bodyweight) during the run-in period were included in the final analyses. […] They were exposed to all experimental tests, but excluded from the analyses.
Treatment regimen (FIG. 1B). Before the intervention all mice were MR scanned and an OGTT was performed. Cages of mice were allocated to experimental groups based on their fat mass. All subsequent measures were paired with data from the same mouse before the intervention.
A LFD (low fat diet) reference group was running in parallel. As controls for the intervention 2 additional groups were included: 1 very HFD and 1 LFD. Experimental mice stayed on the very HFD during the intervention. The mice were on the experimental diet for 10 weeks. They were co-housed throughout the experiment, 4 mice per cage, 3 cages per group. All tests ran over 3 days, 1 cage per group per day.

[2] = Pharmacokinetic study of hBD-2 after single oral gavage; type: in vivo, female NMRI mice
Method: FIG. 28. Pharmacokinetic data following oral administration of 4 mg/kg hBD-2 to female NMRI mice. […] The results are given as group mean +/−SEM.
Pharmacokinetic study to determine oral bioavailability and establish pharmacokinetic profile of hBD-2 following single oral gavage of 4 mg/kg administration to NMRI mice.
Treatment regimen: 21 female NMRI mice were dosed by oral gavage 5 ml/kg using a gavage tube and a 1 ml syringe according to the individual body weight obtained on the day of dosing. Urine was strived sampled at random time points by gently massaging the inguinal area of the abdomen. The first blood sample was taken using a submandibular sampling method. The second blood sample was collected from Isoflurane anaesthetised mice. Intestinal samples were taken after euthanasia. The abdomen of each mouse was opened and three sections (jejunum, duodenum, and colon) of the intestines were sampled.

intestinal microbiota = assay: Longitudinal 16S characterization of intestinal microbiota under prophylactic defensin treatment; type: in vivo, mice
Description: FIG. 21A and 21B. The figures illustrate changes from week 1 (Wk1) to week 10 (Wk10) for the four treatments in Example 1: High fat diet with HD5-HF HD5; high fat diet with hBD2−HD hBD2; High fat diet—no treatment: HF; Low fat diet: LF. Weighted unifrac analysis of microbiota at week 1 (21A) and week 10 (21 B) i.e. relative abundance of bacterial species. […] Abbreviations: Wk 1—week 1; W10—week 10.
FIG. 21C. Illustration of the species of microbiota contributing to the change. […] Allobaculum is a short chain fatty acid producing species. Lactobacillus is a bacteria with anti-inflammatory properties.
Microbial analyses were carried out to study the microbiota of the intestine. Longitudinal 16S characterization was conducted on 4 paired samples from 60 mice, 240 samples in total. Each mouse was sampled prior to diet change, 1 week post diet change, 4 weeks post diet change and at termination, thus ensuring a thorough characterization of the faecal microbiota as a result of defensin treatment.

isolated hepatocytes = settings: Liu et al. (2008); cited from earlier work

In the case of `C[C@]12C=CC(=O)C=C1CC[C@@H]1[C@@H]2[C@@H](O)C[C@@]2(C)[C@H]1CC[C@]2(O)C(=O)CO` [Prednisolon, Prednisolone], the DAI ([1]; 1 mg/kg orally by gavage daily, p<0.05) is reported as “significant inhibition of the DAI on day 9”, the “histological injury in the proximal part of the colon” value ([1]; 1 mg/kg orally daily) is reported as “failed to significantly reduce histological injury in the proximal part of the colon” and the “histological injury in the distal colon” value ([1]; 1 mg/kg orally daily, p<0.01) is reported as “did reduce the injury in the distal colon”.

For “GIGDPVTCLKSGAICHPVFCPRRYKQIGTCGLPGTKCCKKP (disulfide 8-37, 15-30, 20-38 (inferred)) [hBD-2, human beta defensin 2]”, the “weight gain compared with HFD reference group” value (mice fed a high fat diet) was “gained significantly less weight than the HFD reference group”, the “share of defensin-fed mice with a Body Fat Percent resembling LFD reference mice” value (mice fed a high fat diet; 60% HFD) was 50% and the “visceral fat mass of the best protected mice compared with LFD reference mice” value (mice fed a high fat diet; 60% HFD) was “same or smaller visceral fat mass than LFD reference mic”. The “lean mass gained at the end of the study compared with HFD group” value (mice fed a high fat diet; HFD plus hBD-2 vs HFD) was “gained the same amount of lean mass”, the “fat mass at the end of the study compared to the LFD group” value (mice fed a high fat diet; HFD plus hBD-2 vs LFD, p=0.25) was “trended towards increased fat mass compared to the LFD group” and the “visceral fat (eWAT) compared with HFD group” value (mice fed a high fat diet) was “significantly less visceral fat (eWAT) than the HFD group”. For the same compound, the liver weight (mice fed a high fat diet) was “no statistical difference between the three groups in terms of liver weight”, the “Glucose Stimulated Insulin Secretion: insulin concentration compared with LFD group” value (mice fed a high fat diet; during the GTT, week 7) was “higher but not significantly different insulin concentration than the LFD group; also recorded: higher but not significantly different insulin concentration from the LFD group” and the “glucose-stimulated insulin secretion compared with HFD control mice” value (mice fed a high fat diet) was “glucose stimulated insulin response during the glucose challenge was improved”. For the same compound, the “amount of fat mass gained by the HFD group compared to the HFD plus hBD-2 group” value (mice fed a high fat diet; first analysis, p=0.005) was 2 times, the “Insulin Tolerance test: compared with LFD reference group” value (mice fed a high fat diet; mouse, in vivo) was “no statistical significant difference between the LFD reference group and the HFD plus hBD-2 group” and the “Insulin Tolerance test: insulin sensitivity compared with HFD group” value (mice fed a high fat diet; mouse, in vivo) was “significantly more sensitive to insulin than the HFD group”. For the same compound, the “Glucose Tolerance test compared with HFD group” value (mice fed a high fat diet; week 7) was “slightly prolonged glucose clearance but reached significantly lower glucose levels than the HFD group”, the “Glucose Tolerance test compared with HFD group” value (mice fed a high fat diet; week 7, listed as hBD2) was “Glucose tolerance was markedly improved compared to HFD control mice” and the “Five Hour Fasting insulin: HFD group compared with HFD plus hBD-2 group” value (mice fed a high fat diet; p=0.057) was “borderline significantly higher fasting insulin than the HFD plus hBD-2 group”. For the same compound, the “Five Hour Fasting insulin: LFD compared with HFD plus hBD-2 group” value (mice fed a high fat diet; p=0.17) was “no significant difference between the LFD and HFD plus hBD-2 groups”, the “amount of fat mass in percent of total body weight gained by the HFD group compared to the HFD plus hBD-2 group” value (mice fed a high fat diet; re-analysis, p=0.005) was “two times” and the “HOMA-IR index compared with HFD group” value (mice fed a high fat diet) was “statistically significantly lower”. For the same compound, the “fat percentage / change in fat percentage compared with HFD control” value (diet-induced obese mice) was “significantly smaller”, the “Glucose Tolerance Test after start of intervention” value (diet-induced obese mice) was “smaller peak in blood glucose as well as a faster clearance of glucose already after 2 weeks” and the “obese and glucose intolerant mice that significantly improved their glucose tolerance” value (diet-induced obese mice; following 2 weeks of intervention) was 7/8. The “visceral fat (eWAT) at termination compared with HFD control” value (diet-induced obese mice; mouse, in vivo) was “no significant difference in visceral fat (eWAT) between the HFD fed groups”, the “weight gain the first 4 weeks post dietary intervention compared with standard HFD group” value (diet-induced obese mice; p=0.07) was “tended to gain less weight the first 4 weeks post dietary intervention, although not significantly” and the “weight gain from week 4 to the end of the study period compared with standard HFD group” value (diet-induced obese mice; p=0.82) was “gained similar weight as the standard HFD group”. For the same compound, the “Insulin Tolerance Test: insulin sensitivity compared with HFD control group” value (diet-induced obese mice) was “more insulin sensitive compared to the HFD control group”, the “share of the group with a smaller fat percentage than before the intervention” value (diet-induced obese mice; weeks 4 post dietary intervention) was ~75% and the “systemic availability after oral dosing” value ([2]; 4 mg/kg oral, mice) was “not systemically available”. For the same compound, the “time hBD2 remains detectable in the colon content after administration” value ([2]; oral 4 mg/kg) was “up to 360 minutes”.

With “human intestinal alpha defensin 5 (ATCYCRTGRCATRESLSGVCEISGRLYRLCCR; listed as Homo sapiens) [HD5]” the “weight gain compared with HFD reference group” value (mice fed a high fat diet) was “gained less weight than HFD-fed control mice (FIG. 17A), although the effect was not statistically significant”, the “visceral fat (eWAT) compared with HFD group” value (mice fed a high fat diet) was “borderline less visceral fat” and the liver weight (mice fed a high fat diet) was “No statistically significant difference with respect to liver weight”. The “glucose-stimulated insulin secretion compared with HFD control mice” value (mice fed a high fat diet) was “no significant improvement”, the “Insulin Tolerance test: insulin sensitivity compared with HFD group” value (mice fed a high fat diet; mouse, in vivo) was “no significant improvement” and the “fat % compared with HFD-fed control mice” value (mice fed a high fat diet; mouse, in vivo) was “borderline less fat %”. For the same compound, the “feed efficiency compared with HFD-fed control mice” value (mice fed a high fat diet; mouse, in vivo) was “tendency towards lower feed efficiency”, the “Glucose Tolerance test compared with HFD group” value (mice fed a high fat diet; week 7) was “no significant improvement” and the “HOMA-IR index compared with HFD group” value (mice fed a high fat diet) was “no significant improvement”. For the same compound, the “fat percentage / change in fat percentage compared with HFD control” value (diet-induced obese mice) was “significantly lower fat percentage”, the “fat percentage of total body weight over time” value (diet-induced obese mice; 10 weeks intervention) was “tendency of decreasing fat percentage” and the “weight gain after dietary intervention compared with HFD control” value (diet-induced obese mice; 10 weeks on experimental diet) was “gained significantly less weight than the HFD control”. For the same compound, the “Glucose Tolerance Test after start of intervention” value (diet-induced obese mice) was “improved over time”, the “visceral fat (eWAT) at termination compared with HFD control” value (diet-induced obese mice; mouse, in vivo) was “not significantly different” and the “weight of the liver at termination compared to the HFD control” value (diet-induced obese mice; mouse, in vivo) was “tended to be decreased”. For the same compound, the “Insulin Tolerance Test: insulin sensitivity compared with HFD control group” value (diet-induced obese mice) was “more insulin sensitive than the HFD control”, the “microflora composition (weighted unifrac analysis) relative to LFD and non-treated HFD groups” value (intestinal microbiota; after 10 weeks, oral HD5 in HFD) was “gradually approached the bacterial flora of mice fed a LFD; also recorded: partial normalization of the microflora” and the “abundance of bacterial genera in the intestinal microbiota compared with non-treated HFD mice” value (intestinal microbiota; at termination) was “increased abundance of Allobaculum and Lactobacillus and a decrease in abundance of Clostridium”.

In the case of human neutrophil peptide 1 [HNP-1], the “inhibition of glycogenolysis and gluconeogenesis” value (isolated hepatocytes) is listed as “able to inhibit glycogenolysis and gluconeogenesis in isolated hepatocytes”.

For “human neutrophil peptide 2 (CYCRIPACIAGERRYGTCIYQGRLWAFCC; ends and bridges not checked; cysteine pairing not given here; UniProt P59665 66-94, looked up) [HNP-2, α-defensin produced by leucocytes]”, the “inhibition of glycogenolysis and gluconeogenesis” value (isolated hepatocytes) is given as “able to inhibit glycogenolysis and gluconeogenesis in isolated hepatocytes”.
